Measured values taken from patent US9758494B2, “N-(oxazol-2-yl)-aryl-carboxylic acid amides and use thereof as herbicides” (BAYER CROPSCIENCE AG, priority 2012, dated 2017).

Assays:
Format in all cases: in vivo
[1] = test system: Brassica napus (Oilseed Rape); assay: Pre-emergence, damage of crop plants
Description: (§1) Seeds of monocotyledonous and dicotyledonous weed plants and crop plants are laid out in wood-fiber pots in sandy loam and covered with soil. The compounds according to the invention, formulated in the form of wettable powders (WP) or as emulsion concentrates (EC), are then applied to the surface of the soil cover in the form of an aqueous suspension or emulsion at a water application rate equating to 600 to 800 l/ha, with addition of 0.2% wetting agent. After the treatment, the pots are placed in a greenhouse and kept under good growth conditions for the test plants. The damage to the test plants is assessed visually after a test period of 3 weeks by comparison with untreated controls (herbicidal activity in percent (%): 100% activity=the plants have died, 0% activity=like control plants). Here, for example, compounds No. 1-163, 1-171, 1-172, 1-283, 1-284, 1-294, 1-295, 1-334, 10-001 and 11-343, at an application rate of 320 g/ha, have an activity of at least 80% against Veronica persica.
(§2) In the tables below, the properties of the compounds according to the invention are compared to those of the structurally most similar compounds known from WO 2012/028579 A1. These tests were carried out by the pre- and post-emergence method under the conditions mentioned under item 1 and item 2. Here, the herbicidal activity against various harmful plants and the damage of some important crop plants were compared at different dosages.

Oryza sativa (Rice) [2] = assay: Pre-emergence, damage of crop plants
Description: as §1, §2

[3] = test system: Triticum aestivum (Wheat); assay: Pre-emergence, damage of crop plants
Description: as §1, §2

Abutilon theophrasti = assay: Pre-emergence herbicidal action; conditions: Dosage 320/ha (Table C)
Description: as §1, §2

Alopecurus myosuroides [4] = assay: Pre-emergence herbicidal action; conditions: Dosage 320/ha (Table D)
Description: as §1, §2

Amaranthus retroflexus = assay: Pre-emergence herbicidal action; conditions: Dosage 320/ha (Table C)
Description: as §1, §2

Echinochloa crus galli = assay: Pre-emergence herbicidal action; conditions: Dosage 320/ha (Table C)
Description: as §1, §2

Lolium multiflorum [5] = assay: Pre-emergence herbicidal action
Description: as §1, §2

Matricaria inodora = assay: Pre-emergence herbicidal action; conditions: Dosage 320/ha (Table C)
Description: as §1, §2

Polygonum convolvulus = assay: Pre-emergence herbicidal action
Description: as §1, §2

[6] = test system: Brassica napus (Oilseed Rape); assay: Post-emergence, damage of crop plants
Description: (§3) Seeds of monocotyledonous and dicotyledonous weed plants and crop plants are laid out in wood fiber pots in sandy loam, covered with soil and cultivated in a greenhouse under good growth conditions. 2 to 3 weeks after sowing, the test plants are treated at the one-leaf stage. The compounds according to the invention, formulated in the form of wettable powders (WP) or as emulsion concentrates (EC), are then sprayed onto the green parts of the plants in the form of an aqueous suspension or emulsion at a water application rate equating to 600 to 800 l/ha, with addition of 0.2% wetting agent. After the test plants have been left to stand in the greenhouse under optimal growth conditions for about 3 weeks, the action of the preparations is assessed visually in comparison to untreated controls (herbicidal action in percent (%): 100% activity=the plants have died, 0% activity=like control plants). Here, for example, compounds No. 1-163, 1-171, 1-172, 1-173, 1-254, 1-283, 1-284, 1-293, 1-294 and 1-334, at an application rate of 80 g/ha, have an activity of at least 80% against Abutilon theophrasti and Amaranthus retroflexus.
as §2

Oryza sativa (Rice) [7] = assay: Post-emergence, damage of crop plants
Description: as §3, §2

[8] = test system: Triticum aestivum (Wheat); assay: Post-emergence, damage of crop plants
Description: as §3, §2

Alopecurus myosuroides [9] = assay: Post-emergence herbicidal action; conditions: Dosage 80/ha (Table P)
Description: as §3, §2

Avena fatua [10] = assay: Post-emergence herbicidal action; conditions: Dosage 80/ha (Table P)
Description: as §3, §2

Lolium multiflorum [11] = assay: Post-emergence herbicidal action
Description: as §3, §2

Setaria viridis = assay: Post-emergence herbicidal action
Description: as §3, §2

Cyperus serotinus = assay: Post-emergence herbicidal action; conditions: Dosage 80/ha (Table Q)
Description: as §3, §2

Zea mays (Corn) [12] = assay: Pre-emergence, damage of crop plants; conditions: Dosage 320/ha (Table G)
Description: as §1, §2

Zea mays (Corn) [13] = assay: Post-emergence, damage of crop plants; conditions: Dosage 20/ha (Table S)
Description: as §3, §2

Pharbitis purpureum = assay: Post-emergence herbicidal action; conditions: Dosage 20/ha (Table S)
Description: as §3, §2

Avena fatua [14] = assay: Pre-emergence herbicidal action
Description: as §1, §2

SMILES: Cc1c(C(=O)Nc2ncco2)ccc(S(C)(=O)=O)c1S(C)(=O)=O [1-163]
- damage of crop plants, Crop plant BRSNW ([1]; Dosage 320/ha (Table D)): 10%
- damage of crop plants, Crop plant ORYZA (Oryza sativa (Rice) [2]; Dosage 320/ha (Table E)): 0%
- damage of crop plants, Crop plant TRZAS ([3]; Dosage 320/ha (Table E)): 0%
- herbicidal activity against harmful plants ABUTH (Abutilon theophrasti): 100%
- herbicidal activity, Harmful plant ALOMY (Alopecurus myosuroides [4]): 30%
- herbicidal activity against harmful plants AMARE (Amaranthus retroflexus): 90%
- herbicidal activity against harmful plants ECHCG (Echinochloa crus galli): 70%
- herbicidal activity, Harmful plant LOLMU (Lolium multiflorum [5]; Dosage 320/ha (Table E)): 100%
- herbicidal activity against harmful plants MATIN (Matricaria inodora): 100%
- herbicidal activity, Harmful plant POLCO (Polygonum convolvulus; Dosage 320/ha (Table E)): 70%
- damage of crop plants BRSNW ([6]; Dosage 20/ha (Table O)): 40%
- damage of crop plants ORYZA (Oryza sativa (Rice) [7]; Dosage 20/ha (Table O)): 0%
- damage of crop plants TRZAS ([8]; Dosage 20/ha (Table O)): 20%
- herbicidal activity against harmful plants ALOMY (Alopecurus myosuroides [9]): 60%
- herbicidal activity against harmful plants AVEFA (Avena fatua [10]): 40%
- herbicidal activity against harmful plants LOMU (Lolium multiflorum [11]; Dosage 80/ha (Table P)): 20%
- herbicidal activity against harmful plants SETVI (Setaria viridis; Dosage 80/ha (Table P)): 100%

SMILES: CSc1c(C(F)(F)F)ccc(C(=O)Nc2ncco2)c1C [1-171]
- damage of crop plants BRSNW ([1]; Dosage 80/ha (Table A)): 30%
- damage of crop plants BRSNW ([1]; Dosage 80/ha (Table B)): 30%
- damage of crop plants ORYZA (Oryza sativa (Rice) [2]; Dosage 80/ha (Table A)): 0%
- damage of crop plants ORYZA (Oryza sativa (Rice) [2]; Dosage 80/ha (Table B)): 0%
- damage of crop plants TRZAS ([3]; Dosage 80/ha (Table A)): 0%
- damage of crop plants TRZAS ([3]; Dosage 80/ha (Table B)): 0%
- damage of crop plants BRSNW ([6]; Dosage 80/ha (Table M)): 0%
- damage of crop plants BRSNW ([6]; Dosage 80/ha (Table N)): 0%
- damage of crop plants ORYZA (Oryza sativa (Rice) [7]; Dosage 80/ha (Table M)): 0%
- damage of crop plants ORYZA (Oryza sativa (Rice) [7]; Dosage 80/ha (Table N)): 0%
- damage of crop plants TRZAS ([8]; Dosage 80/ha (Table M)): 0%
- damage of crop plants TRZAS ([8]; Dosage 80/ha (Table N)): 0%

SMILES: C[S+]([O-])c1c(S(C)(=O)=O)ccc(C(=O)Nc2ncco2)c1Cl (stereo not drawn) [1-284]
- herbicidal activity against harmful plants LOLMU (Lolium multiflorum [5]; Dosage 320/ha (Table F)): 100%
- herbicidal activity against harmful plants POLCO (Polygonum convolvulus; Dosage 320/ha (Table F)): 70%
- damage of crop plants, Crop plant ORYZA (Oryza sativa (Rice) [7]; Dosage 80/ha (Table Q)): 20%
- herbicidal activity, Harmful plants CYPES (Cyperus serotinus): 60%
- herbicidal activity against harmful plants LOLMU (Lolium multiflorum [11]; Dosage 20/ha (Table R)): 60%
- herbicidal activity, Harmful plants LOLMU (Lolium multiflorum [11]; Dosage 80/ha (Table Q)): 70%
- herbicidal activity against harmful plants SETVI (Setaria viridis; Dosage 20/ha (Table R)): 90%

SMILES: C[S+]([O-])c1c(C(F)(F)F)ccc(C(=O)Nc2ncco2)c1Cl (stereo not drawn) [1-294]
- damage of crop plants BRSNW ([1]; Dosage 320/ha (Table G)): 20%
- damage of crop plants ORYZA (Oryza sativa (Rice) [2]; Dosage 320/ha (Table G)): 30%
- damage of crop plants ZEAMX (Zea mays (Corn) [12]): 0%
- damage of crop plants, Crop plants ORYZA (Oryza sativa (Rice) [7]; Dosage 20/ha (Table S)): 0%
- damage of crop plants, Crop plants TRZAS ([8]; Dosage 20/ha (Table S)): 0%
- damage of crop plants, Crop plants ZEAMX (Zea mays (Corn) [13]): 0%
- herbicidal activity, Harmful plant PHBPU (Pharbitis purpureum): 70%

SMILES: CCS(=O)(=O)c1ccc(C(=O)Nc2nc(C)c(C)o2)c(Cl)c1C1=NOC(CC#N)C1 (stereo not drawn) [11-343]
- Herbicidal activity against AVEFA (Avena fatua [14]; 20 g/ha (Table K)): 80%
- Herbicidal activity against AVEFA (Avena fatua [14]; 20 g/ha (Table L)): 80%
- Herbicidal activity against AVEFA (Avena fatua [14]; 80 g/ha (Table J)): 80%
- Herbicidal activity against AVEFA (Avena fatua [14]; 80 g/ha (Table K)): 80%
- Herbicidal activity against AVEFA (Avena fatua [14]; 80 g/ha (Table L)): 80%
- Herbicidal activity against AVEFA (Avena fatua [14]; 320 g/ha (Table J)): 100%
- Damage of BRSNW ([6]; 5 g/ha (Table W)): 0%
- Damage of BRSNW ([6]; 20 g/ha (Table V)): 0%
- Damage of BRSNW ([6]; 20 g/ha (Table W)): 0%
- Damage of BRSNW ([6]; 20 g/ha (Table X)): 0%
- Damage of BRSNW ([6]; 80 g/ha (Table V)): 0%
- Damage of BRSNW ([6]; 80 g/ha (Table X)): 0%

SMILES: Cc1c(C(=O)Nc2nnnn2C)ccc(S(C)(=O)=O)c1S(C)(=O)=O [WO 2012/028579, No. 1-188]
- herbicidal activity against harmful plants ABUTH (Abutilon theophrasti): 0%
- herbicidal activity against harmful plants AMARE (Amaranthus retroflexus): 40%
- herbicidal activity against harmful plants ECHCG (Echinochloa crus galli): 0%
- herbicidal activity against harmful plants MATIN (Matricaria inodora): 40%
- damage of crop plants BRSNW ([6]; Dosage 20/ha (Table O)): 100%
- damage of crop plants ORYZA (Oryza sativa (Rice) [7]; Dosage 20/ha (Table O)): 20%
- damage of crop plants TRZAS ([8]; Dosage 20/ha (Table O)): 40%

SMILES: CCS(=O)(=O)c1ccc(C(=O)Nc2ncnn2C)c(Cl)c1C1=NOC(CC#N)C1 (stereo not drawn) [WO 2012/028579, No. 1-267]
- Herbicidal activity against AVEFA (Avena fatua [14]; 80 g/ha (Table J)): 0%
- Herbicidal activity against AVEFA (Avena fatua [14]; 320 g/ha (Table J)): 0%
- Damage of BRSNW ([6]; 20 g/ha (Table V)): 90%
- Damage of BRSNW ([6]; 80 g/ha (Table V)): 90%

SMILES: CSc1c(C(F)(F)F)ccc(C(=O)Nc2nnnn2C)c1C [WO 2012/028579, No. 4-135]
- damage of crop plants BRSNW ([1]; Dosage 80/ha (Table A)): 80%
- damage of crop plants ORYZA (Oryza sativa (Rice) [2]; Dosage 80/ha (Table A)): 60%
- damage of crop plants TRZAS ([3]; Dosage 80/ha (Table A)): 60%
- damage of crop plants BRSNW ([6]; Dosage 80/ha (Table M)): 100%
- damage of crop plants ORYZA (Oryza sativa (Rice) [7]; Dosage 80/ha (Table M)): 100%
- damage of crop plants TRZAS ([8]; Dosage 80/ha (Table M)): 100%
